# From patent publication US10308652B2, “Tricyclic heterocyclic compounds useful as inhibitors of TNF” (BRISTOL-MYERS SQUIBB COMPANY, priority 2015, dated 2019)
# Target: TNFα (Homo sapiens (Human), UniProt P01375)
# Assay: TNF induced HEK-Blue assay
# Type: cell-based
# Settings: TNFα 0.5 ng/ml; HEK-Blue-CD40L cells, NF-κB-driven secreted alkaline phosphatase reporter; 18 h
# Protocol: TNF or CD40L-induced HEK-Blue Assay Test compounds serially diluted in DMSO were plated in an assay plate (Labcyte, Cat. #LP-0200) at final concentrations ranging from 0.004 μM to 25μM. TNFα (final concentration 0.5 ng/ml) or CD4OL (final concentration 30 ng/ml) in assay buffer [DMEM, 4.5 g/l glucose (Gibco, Cat. 21063-029), 10% FBS (Sigma, F4135), 1% Penicillin-Streptomycin (Gibco, Cat. 15140-122), 1% Anti-Anti (Gibco, Cat. 15240-112) and 2 mM L-glutamine (Gibco, Cat. 25030-081)] was then added to the assay plate. After a 30 minute pre-incubation at 37° C. and 5% CO2, HEK-Blue-CD40L cells (InvivoGen, Cat. Code hkb-cd40) containing a NF-κB-driven secreted alkaline phosphatase reporter gene were seeded into the assay plate at a density of 20,000 cells per well. This plate was then incubated for 18 h at 37° C. and 5% CO2. Secreted alkaline phosphatase expression was measured using QUANTI-Blue (InvivoGen, Cat. Code rep-qb1) according to manufacturer's specifications and the assay plate was read on a PerkinElmer Envision at 620 nm. Inhibition data for the test compound over a range of concentrations was plotted as percentage inhibition of the test compound (100%=maximum inhibition). IC50 values were determined after correcting for background [(sample read−mean of low control)/(mean of high control−mean of low control)] where by the low control is DMSO without stimulation and high control is DMSO with stimulation. The IC50 is defined as the concentration of test compound which produces 50% inhibition and was quantified using the 4 parameter logistic equation to fit the data.
# TNFα, sequence (P01375 77-233): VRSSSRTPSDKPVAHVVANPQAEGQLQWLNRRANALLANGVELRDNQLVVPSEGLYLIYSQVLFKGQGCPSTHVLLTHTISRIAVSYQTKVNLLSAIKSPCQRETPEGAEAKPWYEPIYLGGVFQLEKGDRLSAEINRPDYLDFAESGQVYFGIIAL
row,Compound,IC50
1,"O=C(c1ccc(-c2ccc3nc4c(n3n2)C(c2ccccc2OC(F)F)NCC4O)cc1)N1CCOCC1 (stereo not drawn) [Example 19, (4-(9-(2-(difluoromethoxy)phenyl)-6-hydroxy-6,7,8,9-tetrahydropyrido[4′,3′:4,5]imidazo[1,2-b]pyridazin-2-yl)phenyl)(morpholino)methanone]",1 to 10 µM
2,"CC(C)(O)c1ccc(-c2ccc3nc4c(n3n2)C(c2ccccc2OC(F)(F)F)NCC4O)cc1 (stereo not drawn) [Example 26, 2-(4-(2-hydroxypropan-2-yl)phenyl)-9-(2-(trifluoromethoxy)phenyl)-6,7,8,9-tetrahydropyrido [4′,3′:4,5]imidazo[1,2-b]pyridazin-6-ol]",< 1 µM
3,"CC(C)(O)c1ccc(-c2ccc3nc4c(n3n2)C(c2ccccc2OC(F)F)OCC4(C)O)cc1 (stereo not drawn) [Example 59, 9-(2-(Difluoromethoxy)phenyl)-2-(4-(2-hydroxypropan-2-yl)phenyl)-6-methyl-6,9-dihydro-7H-pyrano[4′,3′:4,5]imidazo[1,2-b]pyridazin-6-ol]",1 to 10 µM
4,"CC(C)(O)c1ccc(-c2ccc3nc4c(n3n2)C(c2ccccc2OC(F)F)OCC4)cc1 (stereo not drawn) [Example 62, 2-(4-(9-(2-(Difluoromethoxy)phenyl)-7,9-dihydro-6H-pyrano[4′,3′:4,5]imidazo[1,2-b]pyridazin-2-yl)phenyl)propan-2-ol]",< 1 µM
5,"Cn1cc(-c2ccc3nc4c(n3n2)C(c2ccccc2OC(F)F)OCC4)cn1 (stereo not drawn) [Example 64, 9-(2-(Difluoromethoxy)phenyl)-2-(1-methyl-1H-pyrazol-4-yl)-7,9-dihydro-6H-pyrano[4′,3′:4,5]imidazo[1,2-b]pyridazine]",1 to 10 µM

# Results, then the compound that gave them:
row,IC50,Compound
1,1 to 10 µM,"CC(C)(O)c1ncc(-c2ccc3nc4c(n3n2)C(c2ccccc2OC(F)F)NCC4O)cn1 (stereo not drawn) [Example 17, 9-(2-(difluoromethoxy)phenyl)-2-(2-(2-hydroxypropan-2-yl)pyrimidin-5-yl)-6,7,8,9-tetrahydropyrido[4′,3′:4,5]imidazo[1,2-b]pyridazin-6-ol]"
2,10 to 25 µM,"COC1CN(C(=O)c2ccc(-c3ccc4nc5c(n4n3)C(c3ccccc3OC(F)F)NCC5O)cc2)C1 (stereo not drawn) [Example 18, (4-(9-(2-(difluoromethoxy)phenyl)-6-hydroxy-6,7,8,9-tetrahydropyrido[4′,3′:4,5]imidazo[1,2-b]pyridazin-2-yl)phenyl)(3-methoxyazetidin-1-yl)methanone]"
3,10 to 25 µM,"O=C(NC1CC1)c1ccc(-c2ccc3nc4c(n3n2)C(c2ccccc2OC(F)F)NCC4O)cc1 (stereo not drawn) [Example 20, N-cyclopropyl-4-(9-(2-(difluoromethoxy)phenyl)-6-hydroxy-6,7,8,9-tetrahydropyrido[4′,3′:4,5]imidazo[1,2-b]pyridazin-2-yl)benzamide]"
4,1 to 10 µM,"O=C(NC1CC1)c1ccc(-c2ccc3nc4c(n3n2)C(c2ccccc2OC(F)F)NCC4O)cn1 (stereo not drawn) [Example 21, N-cyclopropyl-5-(9-(2-(difluoromethoxy)phenyl)-6-hydroxy-6,7,8,9-tetrahydropyrido[4′,3′:4,5]imidazo[1,2-b]pyridazin-2-yl)picolinamide]"
5,1 to 10 µM,"O=C(O)CN1CCN(c2ncc(-c3ccc4nc5c(n4n3)C(c3ccccc3OC(F)F)NCC5O)cn2)CC1 (stereo not drawn) [Example 22, 2-(4-(5-(9-(2-(difluoromethoxy)phenyl)-6-hydroxy-6,7,8,9-tetrahydropyrido [4′,3′:4,5]imidazo[1,2-b]pyridazin-2-yl)pyrimidin-2-yl)piperazin-1-yl)acetic acid]"
6,1 to 10 µM,"CC(C)(O)c1ccc(-c2ccc3nc4c(n3n2)C(c2ccccc2OC(F)F)OCC4(O)c2ccncc2)cc1 (stereo not drawn) [Example 60, 9-(2-(Difluoromethoxy)phenyl)-2-(4-(2-hydroxypropan-2-yl)phenyl)-6-(pyridin-4-yl)-6,9-dihydro-7H-pyrano[4′,3′:4,5]imidazo[1,2-b]pyridazin-6-ol]"
7,< 1 µM,"CC(C)(O)c1ncc(-c2ccc3nc4c(n3n2)C(c2ccccc2OC(F)F)OCC4)cn1 (stereo not drawn) [Example 63, 2-(5-(9-(2-(Difluoromethoxy)phenyl)-7,9-dihydro-6H-pyrano[4′,3′:4,5]imidazo[1,2-b]pyridazin-2-yl)pyrimidin-2-yl)propan-2-ol]"
